From BindingDB's records for doi:10.1021/cb900195c (University of Pittsburgh, 2009)

Experiments:
[1] = target: Protein Nef/Tyrosine-protein kinase HCK (Homo sapiens, UniProt P03406+P08631); experiment: In Vitro Kinase Assay; details: 25 °C
Excerpt: (§1) In vitro kinase activity of Nef-Hck complex and Hck alone using Z'-lyte kinase assay system and Tyr2 peptide substrate from Invitrogen.

[2] = target: Tyrosine-protein kinase HCK (Homo sapiens, UniProt P08631); experiment: In Vitro Kinase Assay; details: 25 °C
Excerpt: as §1

Tyrosine-protein kinase HCK, sequence (P08631 whole entry): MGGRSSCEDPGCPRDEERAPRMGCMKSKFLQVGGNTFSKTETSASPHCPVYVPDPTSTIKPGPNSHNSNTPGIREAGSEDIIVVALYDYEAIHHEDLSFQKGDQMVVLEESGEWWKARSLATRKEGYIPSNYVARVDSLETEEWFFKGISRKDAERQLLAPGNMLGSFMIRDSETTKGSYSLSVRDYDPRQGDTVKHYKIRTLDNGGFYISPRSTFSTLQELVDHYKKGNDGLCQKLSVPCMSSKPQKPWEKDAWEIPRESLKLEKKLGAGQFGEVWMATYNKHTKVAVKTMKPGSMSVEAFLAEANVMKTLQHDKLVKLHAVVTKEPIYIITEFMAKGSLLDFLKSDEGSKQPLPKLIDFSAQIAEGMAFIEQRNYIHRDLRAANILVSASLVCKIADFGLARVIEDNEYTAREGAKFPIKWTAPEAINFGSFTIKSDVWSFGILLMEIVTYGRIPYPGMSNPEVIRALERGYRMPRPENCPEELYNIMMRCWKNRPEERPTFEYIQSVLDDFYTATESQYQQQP
Protein Nef/Tyrosine-protein kinase HCK, sequence (P08631 whole entry, other chains not shown): as the sequence (P08631 whole entry) above

SMILES	IC50 [1] [µM]	IC50 [2] [µM]
OCCCCNc1ncnc2oc(-c3ccccc3)c(-c3ccccc3)c12 [DFP-4AB]	16	> 30
c1ccc(-c2oc3ncnc(NCCCc4ccco4)c3c2-c2ccccc2)cc1 [DFP-4APF]	2	> 30
OCCCNc1ncnc2oc(-c3ccccc3)c(-c3ccccc3)c12 [DFP-4AP]	5.1	12.8
Nc1ncnc2oc(-c3ccccc3)c(-c3ccccc3)c12 [DFP-4A]	> 30	> 30
